Patent publication US9006228B2 (Merck Sharp & Dohme Corp., priority 2011, dated 2015)

The compounds below were run against T1, human GPR119 (Homo sapiens, UniProt Q8TDV5) (assay: Measurement of GPR119 signaling (cAMP assay; LANCE kit or HTRF) in HEK293 cells stably transfected with human GPR119). Settings: agonist-stimulated cAMP in HEK293 cells expressing human GPR119.
T1 sequence (Q8TDV5 1-308 limits assumed): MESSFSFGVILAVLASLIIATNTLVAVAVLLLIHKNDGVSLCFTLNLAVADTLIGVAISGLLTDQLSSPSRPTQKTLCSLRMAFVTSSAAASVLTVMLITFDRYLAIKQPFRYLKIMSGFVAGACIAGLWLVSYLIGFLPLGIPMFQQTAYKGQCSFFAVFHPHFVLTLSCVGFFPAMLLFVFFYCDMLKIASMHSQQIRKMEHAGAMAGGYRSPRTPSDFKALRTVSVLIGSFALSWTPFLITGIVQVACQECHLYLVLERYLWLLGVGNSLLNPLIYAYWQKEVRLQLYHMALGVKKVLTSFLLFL
Type: cell-based
Description: Measurement of GPR119 Signaling Using LANCE 384-Well cAMP Kit
The adenylate cyclase assay was constructed following the LANCE™ cAMP Kit (Perkin Elmer, AD0264) instructions. […] The reaction was stopped by incubating with the supplied detection buffer containing the europium chelate of the Eu-SA/Biotin-cAMP tracer for 3 hours. The assay was performed in duplicate in a 384 well plate for duplicate plates. Fluorescence at 665 nm was measured using a PHERAstar instrument. Basal activity was determined using a DMSO control and maximum response was defined as cAMP stimulation produced by an internal agonist control. Standard cAMP concentrations were assayed concurrently for conversion of fluorescence signal to cAMP level. The data was analyzed using 4-parameter curve fit in Microsoft Excel.
Measurement of GPR119 Signaling Using a Cyclic AMP (cAMP) Homogenous Time Resolved Fluorescence (HTRF) Assay
Chinese hamster ovary (CHO) cell lines stably transfected with the permissive guanine nucleotide binding protein alpha 15 (Gα15) and murine GPR119 were maintained in DMEM media containing FBS, penicillin-streptomycin, puromycin, and G418 (geneticin). […] Agonist activation of the GPR119 receptor was measured in receptor transfected cells described above, treated with compounds of this invention, using a commercial homogenous time resolved fluorescence (HTRF) kit for measurement of cAMP (CisBio, Bedford, Mass.). The assay was performed in 96-well half-volume plates (murine) or 384-well plates (human) following the manufacturers instructions. Briefly, suspended cells were incubated with a dose titration of test compound at RT for 60 min, lysed, and incubated with HTRF reagents for an additional 60 min. The plate was read using an Envision multilabel reader (Perkin Elmer) adjusted to read time resolved fluorescence and the cAMP concentrations were extrapolated from a cAMP calibration curve. […] The concentration of test compound required to stimulate a half-maximal response (EC50), and efficacy as compared to an internal agonist control, was determined from a sigmoidal 4-parameter curve fit of the resulting plot of normalized activity versus compound concentration.

SMILES	EC50 [nM]
CC(O)CS(=O)(=O)c1ccc(COC[C@@H]2C[C@@H]2C2CCN(c3cnc(Cl)cn3)CC2)c(F)c1 (stereo partly drawn) [Example 98, 1-({4-[({(1R,2R)-2-[1-(5-chloropyrazin-2-yl)piperidin-4-yl]cyclopropyl}methoxy)methyl]-3-fluorophenyl}sulfonyl)propan-2-ol]	7.3
CC(C)c1noc(N2CCC([C@H]3C[C@H]3COCc3ccc(S(C)(=O)=O)cc3)CC2)n1 [Example 24, 1-(3-isopropyl-1,2,4-oxadiazol-5-yl)-4-[(1R,2R)-2-({[4-(methylsulfonyl)benzyl]oxy}methyl)cyclopropyl]piperidine]	0.92
CCc1cnc(N2CCC([C@H]3C[C@H]3[C@@H](COC)OCc3ccc(S(=O)(=O)CC)cc3)CC2)nc1 [Example 67]	0.16
CCc1cnc(N2CCC([C@H]3C[C@H]3COCc3ccc(C[C@@H](C)O)cc3)CC2)nc1 [Example 58, (2R)-1-{4-[({(1R,2R)-2-[1-(5-ethylpyrimidin-2-yl)piperidin-4-yl]cyclopropyl}methoxy)methyl]phenyl}propan-2-ol]	11
CCc1cnc(N2CCC([C@H]3C[C@H]3COCc3cc(F)c(S(C)(=O)=O)c(F)c3)CC2)nc1 [Example 46]	0.4
CCS(=O)(=O)c1ccc(COC[C@@H]2C[C@@H]2C2CCN(c3nc(C(C)C)no3)CC2)cc1 [Example 26, 4-[(1R,2R)-2-({[4-(ethylsulfonyl)benzyl]oxy}methyl)cyclopropyl]-1-(3-isopropyl-1,2,4-oxadiazol-5-yl)piperidine]	3.1
CCc1cnc(N2CCC([C@H]3C[C@H]3COCc3ccc(-c4ccnnc4)c(F)c3)CC2)nc1 [Example 115, 4-{4-[({(1R,2R)-2-[1-(5-ethylpyrimidin-2-yl)piperidin-4-yl]cyclopropyl}methoxy)methyl]-2-fluorophenyl}pyridazine]	1
CC(C)c1noc(N2CCC([C@H]3C[C@H]3COCc3ccc(S(=O)(=O)C4CC4)cc3)CC2)n1 [Example 25]	18
COCc1cnc(N2CCC([C@H]3C[C@H]3COCc3cc(F)c(S(C)(=O)=O)c(F)c3)CC2)nc1 [Example 128, 2-(4-((1R,2R)-2-(((3,5-difluoro-4-(methylsulfonyl)benzyl)oxy)methyl)cyclopropyl)piperidin-1-yl)-5-(methoxymethyl)pyrimidine]	4.5
CCCc1cnc(N2CCC([C@H]3C[C@H]3COCc3ccc(S(=O)(=O)CCO)cn3)CC2)nc1 [Example 89, 2-({6-[({(1R,2R)-2-[1-(5-propylpyrimidin-2-yl)piperidin-4-yl]cyclopropyl}methoxy)methyl]pyridin-3-yl}sulfonyl)ethanol]	10
CS(=O)(=O)c1ccc(COC[C@@H]2C[C@@H]2C2CCN(C(=O)OCC3CC3)CC2)cc1 [Example 13, cyclopropylmethyl 4-[(1R,2R)-2-({[4-(methylsulfonyl)benzyl]oxy}methyl)cyclopropyl]piperidine-1-carboxylate]	3.2
CCc1cnc(N2CCC([C@H]3C[C@H]3COCc3ccc(S(=O)(=O)C4CC4)cc3)CC2)nc1 [Example 56, 2-{4-[(1R,2R)-2-({[4-(cyclopropylsulfonyl)benzyl]oxy}methyl)cyclopropyl]piperidin-1-yl}-5-ethylpyrimidine]	1.2
CCS(=O)(=O)c1ccc(COC[C@@H]2C[C@@H]2C2CCN(c3nc(C(C)C)no3)CC2)cc1F [Example 38, 4-[(1R,2R)-2-({[3-fluoro-4-(ethylsulfonyl)benzyl]oxy}methyl)cyclopropyl]-1-(3-isopropyl-1,2,4-oxadiazol-5-yl)piperidine]	0.4
CS(=O)(=O)c1ccc(COC[C@@H]2C[C@@H]2C2CCN(c3ncc(Cl)cn3)CC2)nc1 [Example 1, 5-chloro-2-{4-[(1R,2R)-2-({[5-(methylsulfonyl)pyridin-2-yl]methoxy}methyl)cyclopropyl]piperidin-1-yl}pyrimidine]	8.7
COC1CN(C(=O)Cc2ccc(COC[C@@H]3C[C@@H]3C3CCN(c4nc(C(C)C)no4)CC3)c(F)c2)C1 [Example 138, 2-(3-fluoro-4-((((1R,2R)-2-(1-(3-isopropyl-1,2,4-oxadiazol-5-yl)piperidin-4-yl)cyclopropyl)methoxy)methyl)phenyl)-1-(3-methoxyazetidin-1-yl)ethanone]	2.2
CC1(OC(=O)N2CCC([C@H]3C[C@H]3COCc3ccc(-n4cnnn4)cc3F)CC2)CC1 [Example 136, 1-methylcyclopropyl 4-((1R,2R)-2-((2-fluoro-4-(1H-tetrazol-1-yl)benzyloxy)methyl)cyclopropyl)piperidine-1-carboxylate]	4.8
CCc1cnc(N2CCC([C@H]3C[C@H]3COCc3ccc(-c4ccnc(OC)n4)cc3F)CC2)nc1 [Example 106, 4-{4-[({(1R,2R)-2-[1-(5-ethylpyrimidin-2-yl)piperidin-4-yl]cyclopropyl}methoxy)methyl]-3-fluorophenyl}-2-methoxypyrimidine]	2.9
CCc1cnc(N2CCC([C@H]3C[C@H]3COCc3ccc(-n4ccnn4)cc3)CC2)nc1 [Example 62, 5-ethyl-2-{4-[(1R,2R)-2-({[4-(1H-1,2,3-triazol-1-yl)benzyl]oxy}methyl)cyclopropyl]piperidin-1-yl}pyrimidine]	0.3
CS(=O)(=O)c1ccc(COC[C@@H]2C[C@@H]2C2CCN(c3ncc(C#N)cn3)CC2)c(F)c1 [Example 72]	9.3
CCc1cnc(N2CCC([C@H]3C[C@H]3COCc3ccc(S(C)(=O)=O)cc3)CC2)nc1 [Example 20, 5-ethyl-2-{4-[(1R,2R)-2-({[4-(methylsulfonyl)benzyl]oxy}methyl)cyclopropyl]piperidin-1-yl}pyrimidine]	0.74
CS(=O)(=O)c1c(F)cc(COC[C@@H]2C[C@@H]2C2CCN(c3ncc(Cl)cn3)CC2)cc1F [Example 45, 5-chloro-2-{4-[(1R,2R)-2-({[3,5-difluoro-4-(methylsulfonyl)benzyl]oxy}methyl)cyclopropyl]piperidin-1-yl}pyrimidine]	0.6
COCc1cnc(N2CCC([C@H]3C[C@H]3COCc3ccc(-n4cnnn4)c(F)c3)CC2)nc1 [Example 132, 2-(4-((1R,2R)-2-((3-fluoro-4-(1H-tetrazol-1-yl)benzyloxy)methyl)cyclopropyl)piperidin-1-yl)-5-(methoxymethyl)pyrimidine]	1.1
CC1(OC(=O)N2CCC([C@H]3C[C@H]3COCc3ccc(S(C)(=O)=O)c(F)c3)CC2)CC1 [Example 43, 1-methylcyclopropyl 4-[(1R,2R)-2-({[3-fluoro-4-(methylsulfonyl)benzyl]oxy}methyl)cyclopropyl] piperidine-1-carboxylate]	4.7
CC(C)(C)OC(=O)N1CCC([C@H]2C[C@H]2COCc2cc(F)c(C(=O)C3CC3)c(F)c2)CC1 [Example 52, tert-butyl 4-[(1R,2R)-2-({[4-(cyclopropylcarbonyl)-3,5-difluorobenzyl]oxy}methyl)cyclopropyl]piperidine-1-carboxylate]	2.4
